Experimental findings from patent publication US7998965B2, “Glutamate aggrecanase inhibitors” (Wyeth LLC, priority 2005, dated 2011) are described below.

The structures appear in SMILES notation. In brackets after ≈: the same amount, converted by molar mass.

Assay [1] deals with T1, purified recombinant human Aggrecanase-1 (rAgg1) (Homo sapiens, UniProt O75173).
T1 sequence (O75173 213-837): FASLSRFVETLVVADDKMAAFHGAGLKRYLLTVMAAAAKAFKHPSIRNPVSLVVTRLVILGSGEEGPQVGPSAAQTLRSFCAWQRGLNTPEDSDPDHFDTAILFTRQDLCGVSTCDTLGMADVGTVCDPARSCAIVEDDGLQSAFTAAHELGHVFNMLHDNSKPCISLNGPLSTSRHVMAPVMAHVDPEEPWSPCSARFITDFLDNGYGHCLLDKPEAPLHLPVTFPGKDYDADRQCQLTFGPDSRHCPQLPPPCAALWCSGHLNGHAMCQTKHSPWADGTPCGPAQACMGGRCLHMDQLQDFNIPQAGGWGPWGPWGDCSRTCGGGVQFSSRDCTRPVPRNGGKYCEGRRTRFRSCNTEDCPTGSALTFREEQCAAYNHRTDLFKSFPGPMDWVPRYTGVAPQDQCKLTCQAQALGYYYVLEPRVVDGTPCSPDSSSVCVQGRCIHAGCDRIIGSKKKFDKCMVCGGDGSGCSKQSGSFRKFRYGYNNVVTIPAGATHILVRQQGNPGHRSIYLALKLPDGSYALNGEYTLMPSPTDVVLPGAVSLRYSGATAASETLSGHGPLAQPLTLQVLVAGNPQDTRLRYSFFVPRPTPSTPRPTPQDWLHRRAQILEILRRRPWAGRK
Kind of assay: In vitro fluorescence screen for Aggrecanase-1 inhibitors. As to conditions: Table 3; for IC50: read-out: Agg1 IC50; for Ki: read-out: Ki Agg1. The format is biochemical.

In the next assay the target is MMP-12 (Homo sapiens, UniProt P39900). Kind of assay: MMP-12 of Table 3. It counts as biochemical. As to conditions: unit inferred.
Sequence of MMP-12 (P39900 106-470): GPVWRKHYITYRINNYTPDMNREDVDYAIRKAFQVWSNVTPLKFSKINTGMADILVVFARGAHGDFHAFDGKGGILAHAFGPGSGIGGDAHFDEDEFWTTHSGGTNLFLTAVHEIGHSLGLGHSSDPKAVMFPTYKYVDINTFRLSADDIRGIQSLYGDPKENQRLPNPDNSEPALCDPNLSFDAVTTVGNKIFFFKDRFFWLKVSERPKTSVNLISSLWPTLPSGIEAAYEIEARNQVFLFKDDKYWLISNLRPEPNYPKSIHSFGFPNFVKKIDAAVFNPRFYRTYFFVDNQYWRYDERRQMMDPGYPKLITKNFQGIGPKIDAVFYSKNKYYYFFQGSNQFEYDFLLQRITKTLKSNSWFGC
The target of a further assay is T2, recombinant human MMP-2 (Homo sapiens, UniProt P08253).
T2 sequence (P08253 110-660): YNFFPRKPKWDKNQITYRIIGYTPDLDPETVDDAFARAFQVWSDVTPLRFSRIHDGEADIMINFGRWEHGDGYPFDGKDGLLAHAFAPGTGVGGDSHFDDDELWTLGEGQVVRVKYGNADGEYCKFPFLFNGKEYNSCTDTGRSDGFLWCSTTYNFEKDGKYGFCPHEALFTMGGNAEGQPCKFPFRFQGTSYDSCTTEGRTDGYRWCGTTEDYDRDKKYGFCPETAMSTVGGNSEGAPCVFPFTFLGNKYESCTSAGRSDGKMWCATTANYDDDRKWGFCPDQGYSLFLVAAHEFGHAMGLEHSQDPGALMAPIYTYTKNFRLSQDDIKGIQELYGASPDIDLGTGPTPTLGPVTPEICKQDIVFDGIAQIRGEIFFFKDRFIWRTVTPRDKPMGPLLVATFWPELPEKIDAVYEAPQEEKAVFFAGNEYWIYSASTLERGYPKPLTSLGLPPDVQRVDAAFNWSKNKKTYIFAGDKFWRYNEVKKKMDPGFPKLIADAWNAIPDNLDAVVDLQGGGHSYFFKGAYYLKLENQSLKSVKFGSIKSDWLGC
Kind of assay: In vitro fluorescence assay of MMP-2 activity.

The target of assay [2] is T3, purified recombinant human Aggrecanase-2 (Ag2t-Phe628-Strep) (Homo sapiens, UniProt Q9UNA0).
T3 construct: the form used is denoted as Ag2t-Phe628-Strep (MW=41,737)
T3 sequence (Q9UNA0 262-628): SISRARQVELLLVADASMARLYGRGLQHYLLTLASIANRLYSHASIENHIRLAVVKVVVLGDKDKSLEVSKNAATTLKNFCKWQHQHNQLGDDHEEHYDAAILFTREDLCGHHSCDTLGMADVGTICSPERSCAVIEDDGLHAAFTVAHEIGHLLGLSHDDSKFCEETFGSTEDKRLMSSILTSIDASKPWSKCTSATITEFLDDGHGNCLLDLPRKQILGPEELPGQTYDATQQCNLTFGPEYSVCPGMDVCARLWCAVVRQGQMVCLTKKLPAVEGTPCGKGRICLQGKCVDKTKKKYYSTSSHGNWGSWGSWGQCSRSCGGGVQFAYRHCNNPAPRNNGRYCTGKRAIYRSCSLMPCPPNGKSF
Kind of assay: In vitro fluorescence screen for Aggrecanase-2 inhibitors. The format is biochemical. As to conditions: Table 3; for IC50: read-out: Agg 2 IC50; for Ki: read-out: Ki Agg2.

In assay [3] the test system is Aggrecanase-mediated aggrecan cleavage in human OA cartilage explants. Kind of assay: Human osteoarthritic cartilage explant efficacy study (BC3 western analysis). It counts as cell-based. As to conditions: Homo sapiens. An excerpt:
Human OA Cartilage Explant Culture: Discarded tissues from consented knee replacement patients were obtained from New England Baptist Hospital (Brookline, Mass.) in sterile phosphate buffered saline (PBS) after about 2-4 hrs post surgery. Cartilage slices were harvested from the knee specimens and washed several times in PBS. These cartilage slices were cut into appropriate pieces (6-8 mm) and rinsed in PBS and then in media and further cultured for additional days as cartilage explants. The medium consisted of Dulbecco's Modified Eagle's medium (DMEM, JRH Biosciences, Lenexa, Kans.), 50 μg/ml ascorbic acid (Wako, Osaka, Japan), 10 mM HEPES, pH 7.0 (Mediatech, Herndon, Va.), 2 mM L-glutamine (Mediatech), 100 U/ml antibiotic-antimycotic solution (Mediatech).
Test compounds: The test compounds are described in Examples 8OO, 8NNNNNNN, and 8WWWWWWW. Stock solutions of the compounds were prepared at 1 mg/ml in DMSO, aliquoted and stored at −20° C. Working solutions of the compounds were made in DMSO and added to the culture for efficacy studies.
Efficacy study: Cartilage explants were cultured for 2-3 days in DMEM medium in a 37° C. and 5% CO2 environment to equilibrate the tissue. Explants were weighed (˜250 mg) and placed in wells of a 24-well culture dish in 1 ml of medium and 3 replicates per treatment group. For the efficacy study, cartilage explants were cultured for 6 days in the presence or absence of various concentrations of the test compound. The media was replaced on day 3 and the experiment was terminated on day 6. Total aggrecan content of conditioned media was measured by a colorimetric assay with DMMB (Farndale, R W et al., Biochim Biophys Acta. 1986, 883, 173-177).
Western analysis: Aggrecan fragments in conditioned medium were analyzed by western analysis using neoepitope antibody, BC-3 designed to recognize the Aggrecanase-generated N-terminal interglobular neoepitope ^374ARGS. Equal cartilage weight equivalent conditioned media from each replicate well per treatment group was pooled and digested with Chondroitinase ABC (Sigma, St Louis, Mo.), Keratinase I (Seikagaku America, Falmouth, Mass.) and Keratinase II (Seikagaku America, Falmouth, Mass.) for 2 h at 37° C. Samples were concentrated by YM-10 centrifugal filter device (Millipore Corp., Bedford, Mass.), lyophilized and reconstituted with equal volume of water. Samples were separated under reducing conditions on 4-12% gradient Tris-glycine gels (Invitrogen, Carlsbad, Calif.). Proteins from the gels were transferred to nitrocellulose membranes. Immunoblots were probed using Mab BC-3 (Abcam, Cambridge, Mass.). Incubation with primary and alkaline-phosphatase-conjugated secondary goat anti-mouse IgG (Promega Corp., Madison, Wis.) was performed overnight at 4° C. and at room temperature for 1 h, respectively. The immunoblots were incubated with NBT/BCIP substrate (Promega Corp., Madison, Wis.) at room temperature to achieve optimum color development. The aggrecan fragments containing the ARGS neoepitope were quantitated by densitometry analysis and the percentage inhibition of aggrecan degradation by test compounds was determined.

For a further assay, the target named is MMP-8 (Homo sapiens, UniProt P22894). Kind of assay: MMP-8 of Table 3. The format is biochemical. As to conditions: unit inferred.
Sequence of MMP-8 (P22894 101-467, species assumed): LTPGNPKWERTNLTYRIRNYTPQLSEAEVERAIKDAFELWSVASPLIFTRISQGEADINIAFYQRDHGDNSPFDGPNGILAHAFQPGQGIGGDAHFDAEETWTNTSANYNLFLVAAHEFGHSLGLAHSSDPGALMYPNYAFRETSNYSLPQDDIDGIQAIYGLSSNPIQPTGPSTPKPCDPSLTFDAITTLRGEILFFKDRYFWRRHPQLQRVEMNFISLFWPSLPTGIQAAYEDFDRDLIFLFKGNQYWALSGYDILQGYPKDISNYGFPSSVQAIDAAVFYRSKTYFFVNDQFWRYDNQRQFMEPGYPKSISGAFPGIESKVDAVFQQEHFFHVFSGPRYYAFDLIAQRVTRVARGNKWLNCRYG
The mark [4] stands for this setting: read-out: % inhibition (BC3 analysis).

Consider `CC(C)(Cc1ccc(F)cc1)NC(=O)[C@H](CCC(=O)O)NC(=O)c1ccc(-c2ccc(Cl)s2)cc1` [Example 8WWWWWWW, N^2-[4-(5-chloro-2-thienyl)benzoyl]-N-[2-(4-fluorophenyl)-1,1-dimethylethyl]-L-α-glutamine], for which, in assay [1], the IC50 was below 30 nM and the Ki is below 3 nM. For the same molecule, at MMP-12, the IC50 was determined as 630 nM. Moreover, at recombinant human MMP-2, the IC50 is 1080 nM. In addition, in assay [2], the IC50 worked out at 50 nM and the Ki amounted to 42 nM. In addition, in assay [3] (144 h, read-out: EC50 (inhibition of aggrecanase generated aggrecan fragments)), the EC50 was in the range of 0.04 to 0.16 µg/mL (≈ 0.0774 to 0.309 µM). Besides, in assay [3] (setting [4]), the inhibition at 0.01 µg/mL turned out to be 2.85%, the inhibition at 0.02 µg/mL came to 46.4%, the inhibition at 0.04 µg/mL was determined as 23.5% and the inhibition at 0.08 µg/mL amounted to 76.9%. Besides, in assay [3] (setting [4]), the inhibition at 0.15 µg/mL is 88.5%, the inhibition at 0.3 µg/mL turned out to be 95%, the inhibition at 0.6 µg/mL is 98% and the inhibition at 1.25 µg/mL is 100%. On MMP-8, the midpoint of inhibition, the IC50, lay at 370 nM.

On to `CC(C)(Cc1ccccc1)NC(=O)[C@H](CCC(=O)O)NC(=O)c1ccc(-c2ccc(Cl)cc2)s1` [N^2-{[5-(4-chlorophenyl)-2-thienyl]carbonyl}-N-(1,1-dimethyl-2-phenylethyl)-L-α-glutamine], for which the IC50 in assay [1] is below 30 nM; against MMP-12, 2240 nM; at recombinant human MMP-2, 6970 nM; in assay [2], 100 to 300 nM; against MMP-8 it was 2230 nM. For the same molecule, the figures for the Ki in assay [1] and in assay [2] were 28.9 nM and 204 nM, respectively.

Turning to `CC(C)(Cc1ccc(Cl)cc1)NC(=O)[C@H](CCC(=O)O)NC(=O)c1ccc(-c2ccc(Cl)cc2)cc1` [Example 8XXXXXXXXX, N^2-[(4′-chlorobiphenyl-4-yl)carbonyl]-N-[2-(4-chlorophenyl)-1,1-dimethylethyl]-L-α-glutamine], the IC50 is below 30 nM in assay [1]; 597 nM at MMP-12; 2610 nM at recombinant human MMP-2; 25 nM in assay [2]; 1790 nM against MMP-8. The Ki in assay [1] stood at 18.2 nM; in assay [2] it was 71.6 nM.

As to `Cc1ccc(-c2ccc(C(=O)N[C@@H](CCC(=O)O)C(=O)NC(C)(C)Cc3ccc(F)cc3)cc2)s1` [Example 8VVVVVVV, N-[2-(4-fluorophenyl)-1,1-dimethylethyl]-N^2-[4-(5-methyl-2-thienyl)benzoyl]-L-α-glutamine], the IC50 is below 30 nM in assay [1], 770 nM against MMP-12, 570 nM at recombinant human MMP-2 and 410 nM at MMP-8. The Ki in assay [1] amounted to 7 nM; in assay [2], 305 nM. Moreover, the inhibition at 0.14 µM in assay [2] (at 140 (nM), read-out: Agg 2 % at concentration) amounted to 51%.

With `CC(C)(Cc1ccc(F)cc1)NC(=O)[C@H](CCC(=O)O)NC(=O)c1ccc(-c2ccc(F)cc2)s1` [Example 8ZZZZZZZZZ, N-[2-(4-fluorophenyl)-1,1-dimethylethyl]-N^2-{[5-(4-fluorophenyl)-2-thienyl]carbonyl}-L-α-glutamine], the IC50 in assay [1] was below 30 nM; against MMP-12, 2860 nM; at recombinant human MMP-2, 8280 nM; in assay [2], 30 to 90 nM; against MMP-8, 2440 nM. For the same molecule, the inhibitory constant (Ki) in assay [1] is 4.7 nM; in assay [2], 123 nM.

Turning to `CC(C)(Cc1ccccc1)NC(=O)[C@H](CCC(=O)O)NC(=O)c1ccc(-c2ccc(F)cc2)cc1` [N-(1,1-dimethyl-2-phenylethyl)-N^2-[(4′-fluorobiphenyl-4-yl)carbonyl]-L-α-glutamine], the IC50 was below 30 nM in assay [1]; 628 nM against MMP-12; 4000 nM on recombinant human MMP-2; 90 nM in assay [2]; 763 nM at MMP-8. The results for the Ki in assay [1] and in assay [2] were 27.2 nM and 218 nM, respectively.

With `CC(C)(Cc1ccccc1)NC(=O)[C@H](CCC(=O)O)NC(=O)c1ccc(-c2ccc(Br)s2)cc1` [Example 8OOOOOOOOO, N^2-[4-(5-bromo-2-thienyl)benzoyl]-N-(1,1-dimethyl-2-phenylethyl)-L-α-glutamine], the IC50 in assay [1] is below 30 nM; against MMP-12, 372 nM; on recombinant human MMP-2, 718 nM; in assay [2] it was around 30 nM; against MMP-8 it was 349 nM. In addition, the Ki came to 2.7 nM in assay [1] and 66 nM in assay [2].

Usually IC50 stands for the concentration that inhibits the measured activity by half. The term Ki denotes a measure of affinity in units of concentration, obtained from inhibition or displacement. As a reminder, the EC50 is the midpoint of the concentration-response curve.
